Laboratory results reported in PMC4445002, “Efficient inhibition of tumor angiogenesis and growth by a synthetic peptide blocking S100A4-methionine aminopeptidase 2 interaction” (Molecular Therapy. Methods & Clinical Development, 2015).

Experiments:
MetAP2 [1] = test system: MetAP2; set-up: method as in PMID 16790550, PMID 22229417; details: cited from earlier work
ERK1/2 = test system: ERK1/2; set-up: method as in PMID 19716858; details: cited from earlier work
MetAP2 [2] = details: cited from earlier work
S100A4 [3] = assay: FRET acceptor-photobleaching analysis in live HeLa cells; assay type: binding; details: ECFP fusion cotransfected with EYFP-S100A4, acceptor photobleaching, n = 8–11, **P < 0.01, ***P < 0.001
S100A4 [4] = assay: Surface plasmon resonance binding to GST-S100A4; details: Biacore 3000, captured GST-S100A4, SBD 1 mmol/l, HBS-P pH 7.4, with or without 1 mmol/l CaCl2, 25 °C, duplicated experiment
Source text: The binding of the SBD peptide to S100A4 was examined by Surface plasmon resonance (SPR) with a Biacore 3000 biosensor and GST Capture kit (GE Healthcare, Little Chalfont, UK) according to the manufacturer’s instructions. Goat anti-GST antibody was immobilized on two flow cells of the sensor chip (CM-5) using a standard amine coupling procedure, and then recombinant GST-S100A4 or GST as a negative control was captured. The SBD peptide (1 mmol/l) in HBS-P running buffer (10 mmol/l Hepes, pH 7.4, 150 mmol/l NaCl, 0.005% P20) in the presence or absence of 1 mmol/l CaCl2 was injected over two flow cells of the chip at a flow rate of 10 ml/minute at 25 °C for 5 minutes. The response from the control surface was subtracted, and the data plotted as Resonance Units (RU).

[5] = test system: S100A4-MetAP2 interaction; assay: In vitro GST pull-down binding assay S100A4-MetAP2

In the case of `CO[C@@H]1[C@H](OC(=O)/C=C/C=C/C=C/C=C/C(=O)O)CC[C@]2(CO2)[C@H]1[C@@]1(C)O[C@@H]1CC=C(C)C` [Fumagillin, fumagillin], the antiangiogenic activity (MetAP2 [1]) is listed as “potent antiangiogenic agents”, the “effect on ERK1/2 activity and cell growth” value (ERK1/2) is listed as “inhibition of the activity of ERK1/2 and cell growth” and the “effect on MetAP2 auto-proteolytic activity” value (MetAP2 [2]) is listed as “inhibits MetAP2’s auto-proteolytic activity”. The “effect on MetAP2 turnover rate” value (MetAP2 [2]) was “decreases its turnover rate”.
For `CO[C@@H]1[C@H](OC(=O)NC(=O)CCl)CC[C@]2(CO2)[C@H]1[C@@]1(C)O[C@@H]1CC=C(C)C` [TNP-470], the antiangiogenic activity (MetAP2 [1]) is listed as “potent antiangiogenic agents”.
For “ECFP-CBD: CBD sequence subcloned into pECFP-C1, expressed in HeLa cells (TMIEICEKLEDCSRKLIKENGLNAGLAFPTGCSLNNCA; left off: ECFP, end not stated, kept)”, the “FRET efficiency with EYFP-S100A4 vs negative controls” value (S100A4 [3]) was “but not for ECFP-CBD/EYFP-S100A4 (orange bars), were significantly higher than those in respective negative controls”.
In the case of “ECFP-NBD: NBD sequence subcloned into pECFP-C1, expressed in HeLa cells (REAAEAHRQVRKYVMSWIKPGMTMIEICEKLEDCSRKLI; left off: ECFP, end not stated, kept)”, the “FRET efficiency with EYFP-S100A4 vs negative controls” value (S100A4 [3]) is reported as “significantly higher than those in respective negative controls”.
With “ECFP-SBD: SBD sequence subcloned into pECFP-C1, expressed in HeLa cells (REAAEAHRQVRKYVMSWIKPGMTMIEICEKLEDCSRKLIKENGLNAGLAFPTGCSLNNCA; left off: ECFP, end not stated, kept)” the “FRET efficiency with EYFP-S100A4 vs negative controls” value (S100A4 [3]) was “significantly higher than those in respective negative controls”.
In the case of “SBD: 60 amino acid residues spanning from Arg170 to Ala229 of MetAP2 (REAAEAHRQVRKYVMSWIKPGMTMIEICEKLEDCSRKLIKENGLNAGLAFPTGCSLNNCA)”, the “binding to S100A4 (SPR)” value (S100A4 [4]) is reported as “occurred only in the presence of Ca^2+” and the “inhibition of S100A4-MetAP2 interaction (GST pull-down)” value ([5]; [35S]MetAP2, GST/S100A4, 1 mmol/l CaCl2, peptide at 25-fold molar excess of MetAP2) is reported as “efficiently blocked the interaction between S100A4 and MetAP2”.
With methionine aminopeptidase 2 [MetAP2] the “binding of MetAP2 to S100A4 (GST pull-down)” value ([5]; [35S]MetAP2, GST/S100A4, 1 mmol/l CaCl2 or 1 mmol/l EDTA) was “S100A4 bound to MetAP2 in a Ca^2+-dependent manner”.
